Reference: patent US8809389B2, “Substituted alkynyl phenoxy compounds as new synergists in pesticidal compositions” (Endura S.p.A., priority 2009, dated 2014)

Tests used:
[1] = target: T1, purified resistance-associated esterase (E4) (Myzus persicae, UniProt P35501); assay: Esterase interference assay (indirect determination of esterase inhibition); type: biochemical; settings: for Esterase protection (%) after pre-incubation with compound: no esterase = 0%, uninhibited E4 = 100%
T1 construct: 5 g of aphids (stored at −20° C.) were homogenised in 0.02 M phosphate buffer pH 7.0; from tissue; host or cells: whole Myzus persicae aphids, clone 794JZ; homogenate purified over G-25 and DEAE Sepharose Fast Flow
T1 sequence (P35501 24-552): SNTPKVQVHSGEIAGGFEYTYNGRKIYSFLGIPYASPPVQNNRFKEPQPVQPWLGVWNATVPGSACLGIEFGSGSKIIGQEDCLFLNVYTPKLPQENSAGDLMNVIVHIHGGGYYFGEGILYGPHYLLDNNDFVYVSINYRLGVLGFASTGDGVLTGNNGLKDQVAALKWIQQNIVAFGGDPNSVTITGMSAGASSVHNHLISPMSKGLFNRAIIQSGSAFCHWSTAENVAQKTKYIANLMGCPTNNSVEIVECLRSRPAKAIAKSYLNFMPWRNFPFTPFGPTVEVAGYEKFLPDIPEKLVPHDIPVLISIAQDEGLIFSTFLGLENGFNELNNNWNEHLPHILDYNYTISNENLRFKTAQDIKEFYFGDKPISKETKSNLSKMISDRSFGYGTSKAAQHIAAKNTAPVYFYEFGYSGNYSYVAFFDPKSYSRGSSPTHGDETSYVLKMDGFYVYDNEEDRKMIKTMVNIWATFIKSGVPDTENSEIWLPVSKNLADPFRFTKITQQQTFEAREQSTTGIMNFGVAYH
Excerpt: Measuring the in vitro inhibition is not straight forward, as synergists may bind to a site other than the active site.
The esterase used was the well-characterised resistance associated esterase purified from M. persicae, E4, (aphid clone: 794JZ) as per Devonshire (1977) with some modifications(Devonshire A L, The properties of a carboxylesterase from the peach-potato aphid, Myzus persicae (Sulz.) and its role in conferring insecticide resistance. Biochem J 167: 675-683 (1977)). Briefly, 5 g of aphids (stored at −20° C.) were homogenised in 0.02 M phosphate buffer pH 7.0 and centrifuged at 20 000 g for 10 min. The supernatant was passed through a G-25 column using 0.02M Tris/HCl, pH 8.5 buffer. Unretarded fractions containing esterase activity were further chromatographed through DEAF Sepharose Fast Flow (Amersham Biosciences) and eluted with a linear 0-0.35 M NaCl gradient in 500 ml of Tris/HCl as above. Fractions containing carboxylesterase activity in the form of E4 were concentrated, desalted, and buffer exchanged to 0.02 M phosphate pH 7.0 for storage.
Interactions of the purified resistance-associated esterase (E4) with Compound of Example 2, Compound of Example 3, Compound of Example 4, Compound of Example 9 and Compound of Example 11 were performed using the ‘esterase interference assay’, as described by Khot et al., with some modifications. Devonshire A L, The properties of a carboxylesterase from the peach-potato aphid, Myzus persicae (Sulz.) and its role in conferring insecticide resistance. Biochem J 167: 675-683 (1977)). Briefly, stock solutions of novel synergists (3 mM in acetone) were pre-incubated with pure E4, to give a final concentration of 0.03 mM, for 16 h at 4° C. Aliquots (15 μl ) of E4, E4+Compound of Example 2, E4+Compound of Example 3, E4+Compound of Example 4, E4+Compound of Example 9 and E4+Compound of Example 11 were incubated for 1 h with 60 μl of serial dilutions of azamethiphos in 0.02M phosphate buffer, pH 7, in separate wells of a NUNC microplate. Aliquots (25 p1) of house fly head homogenate (source of AChE) were added to each well and incubated for 15 minutes at room temperature. E4 in acetone and buffer only served as the positive and the negative controls respectively. AChE activity was measured at 405 nm using a Tmax kinetic microplate reader (Molecular Devices, Menlo Park, Calif.). Readings were taken automatically for 10 min at 10 s intervals. The rate (mOD min^−1) was calculated by the integrated software, Softmax Pro 4.6. All treatments were performed in triplicate.
No added esterase is giving 0% esterase protection and uninhibited esterase (E4) is giving 100% protection.
The materials and procedure as stated in Example 13, paragraphs 13.1, 13.1.2, 13.1.2.1 and 13.1.2.2. have been used and the following results have been obtained: […]

Myzus persicae = assay: Topical application bioassay on aphid clones: imidacloprid with or without synergist pre-treatment; settings: aphid clone 5191A
Method: Aphid clones were reared on Chinese cabbage (Brassica rapa L. var. Pekinensis c.v Wong Bok) (Brassicaceae) leaves held in small plastic box-cages maintained at 18±2° C. with a 16:8 h light:dark photoperiod (Blackman R L, Variation in the photoperiodic response within natural populations of Myzus persicae (Sulzer). Bull Ent Res 60: 533-546 (1971)).
Clone 4106A is a laboratory insecticide-susceptible standard2 . […] Both aphid clones have been established from single parthenogenetic M. persicae females (Foster S P, Denholm I, Thompson R, Poppy G M, Powell W, Reduced response of insecticide-resistant aphids and attraction of parasitoids to alarm pheromone; a potential fitness trade-off. Bull Ent Res 95: 37-46 (2005)).
12.1.2 Topical Application Bioassay with 5191A Aphid Clone Young apterae were transferred to the abaxial surface of Chinese cabbage leaf discs (10 adults per leaf disc, at least 3 replicates per concentration) held on 1% agar in plastic containers (4 cm in diameter). The upper edge of each container was coated with Fluon (Whitford Plastics, UK) to prevent subsequent aphid escape from the leaf surface. After allowing 2 h for the aphids to settle, each was dosed with 0.25 μl of either 1 g L^−1 Compound of Example 3 dissolved in acetone or acetone only. After 4 h aphids were further treated with 0.25 μl imidacloprid in acetone (96% AR) using a
Burkard microapplicator (Burkard, Rickmansworth, UK). Controls were treated with acetone only. Treated aphids were stored at 18±2° C. and 16 h light: 8 h dark photoperiod. All bioassays were scored at the endpoint of 72 h after treatment. Adults incapable of co-ordinated movement (after gentle touching with a paint brush if necessary) were scored as dead. All bioassays were completed in triplicate.

CC#CCOc1cc2c(cc1CCC)OCO2 [Example 3, 5-(but-2-ynyloxy)-6-propyl-benzo[1.3]dioxole]
Reduction of esterase protection, comparison in words ([1]; E4 esterase interference assay, Examples 13 and 16): better activity than compounds 4, 7, respectively | Esterase protection (%) after pre-incubation with compound ([1]; Table 2 (Example 13), 0.03 mM compound pre-incubated with E4 16 h at 4° C.): 0.97% | Esterase protection (%) after pre-incubation with compound ([1]; second 'TABLE 3' (Example 16), procedure as Example 13): 0.98% | LC50 of imidacloprid after pre-treatment with the synergist (Myzus persicae; FE4(R3), 0.25 μl of 1 g L^−1 synergist 4 h before imidacloprid, scored 72 h): 1.25 ppm | SF, synergism factor (LC50 unsynergised / LC50 synergised) (Myzus persicae; imidacloprid plus 1 g L^−1 synergist pre-treatment): 72.4
